Test results published in PubChem BioAssay (NCI).
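Five concentrations, 48 hours, 96-well plates. At the TGI there is no net growth.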

What was measured:
Experiment in all cases: DTP human tumour cell line panel, 48 h
SK-MEL-2 melanoma = tested on: SK-MEL-2 melanoma
T-47D breast = tested on: T-47D breast
XF 498 CNS = tested on: XF 498 CNS
HOP-92 NSCLC = tested on: HOP-92 NSCLC
SNB-19 CNS = tested on: SNB-19 CNS
CAKI-1 renal = tested on: CAKI-1 renal
MCF7 breast = tested on: MCF7 breast
SK-OV-3 ovarian = tested on: SK-OV-3 ovarian
SNB-75 CNS = tested on: SNB-75 CNS
A549 NSCLC = tested on: A549 NSCLC
NCI-H226 lung = tested on: NCI-H226 lung
M14 melanoma = tested on: M14 melanoma
OVCAR-8 ovarian = tested on: OVCAR-8 ovarian
MDA-MB-435 = tested on: MDA-MB-435
MDA-MB-231 breast = tested on: MDA-MB-231 breast
HOP-62 NSCLC = tested on: HOP-62 NSCLC
OVCAR-4 ovarian = tested on: OVCAR-4 ovarian
BT-549 breast = tested on: BT-549 breast
ACHN renal = tested on: ACHN renal
PC-3 prostate = tested on: PC-3 prostate
NCI/ADR-RES ovarian = tested on: NCI/ADR-RES ovarian
M19-MEL melanoma = tested on: M19-MEL melanoma
SN12C renal = tested on: SN12C renal
SK-MEL-28 melanoma = tested on: SK-MEL-28 melanoma
KM20L2 colon = tested on: KM20L2 colon
786-0 renal = tested on: 786-0 renal
UACC-257 melanoma = tested on: UACC-257 melanoma
HT29 colon = tested on: HT29 colon
DMS 273 small cell lung = tested on: DMS 273 small cell lung
SF-268 CNS = tested on: SF-268 CNS
A498 renal = tested on: A498 renal
RXF-631 renal = tested on: RXF-631 renal
NCI-H23 lung = tested on: NCI-H23 lung
SF-539 CNS = tested on: SF-539 CNS
NCI-H460 lung = tested on: NCI-H460 lung
HS 578T breast = tested on: HS 578T breast
UACC-62 melanoma = tested on: UACC-62 melanoma
KM12 colon = tested on: KM12 colon
MALME-3M melanoma = tested on: MALME-3M melanoma
MDA-N = tested on: MDA-N
CCRF-CEM leukemia = tested on: CCRF-CEM leukemia
DLD-1 colon = tested on: DLD-1 colon
UO-31 renal = tested on: UO-31 renal
HL-60(TB) leukemia = tested on: HL-60(TB) leukemia
IGROV1 ovarian = tested on: IGROV1 ovarian
TK-10 renal = tested on: TK-10 renal
OVCAR-3 ovarian = tested on: OVCAR-3 ovarian
NCI-H522 lung = tested on: NCI-H522 lung
HCC-2998 colon = tested on: HCC-2998 colon
LOX IMVI melanoma = tested on: LOX IMVI melanoma
SF-295 CNS = tested on: SF-295 CNS
SK-MEL-5 melanoma = tested on: SK-MEL-5 melanoma
SR leukemia = tested on: SR leukemia
OVCAR-5 ovarian = tested on: OVCAR-5 ovarian
HCT-15 colon = tested on: HCT-15 colon
MOLT-4 leukemia = tested on: MOLT-4 leukemia
DU-145 prostate = tested on: DU-145 prostate
U251 CNS = tested on: U251 CNS
COLO 205 colon = tested on: COLO 205 colon
RXF 393 renal = tested on: RXF 393 renal
EKVX NSCLC = tested on: EKVX NSCLC
RPMI-8226 leukemia = tested on: RPMI-8226 leukemia
DMS 114 small cell lung = tested on: DMS 114 small cell lung
HCT-116 colon = tested on: HCT-116 colon
K-562 leukemia = tested on: K-562 leukemia
SW-620 colon = tested on: SW-620 colon
LXFL 529 NSCLC = tested on: LXFL 529 NSCLC
SNB-78 CNS = tested on: SNB-78 CNS
HOP-18 NSCLC = tested on: HOP-18 NSCLC

COc1ccc(OC)c2c(=S)c3ccccc3[nH]c12
TGI (SK-MEL-2 melanoma): > 100 µM | TGI (T-47D breast): > 100 µM | TGI (XF 498 CNS): > 100 µM | TGI (HOP-92 NSCLC): > 100 µM | TGI (SNB-19 CNS): > 100 µM | TGI (CAKI-1 renal): > 100 µM | TGI (MCF7 breast): > 100 µM | TGI (SK-OV-3 ovarian): > 100 µM | TGI (SNB-75 CNS): > 100 µM | TGI (A549 NSCLC): > 100 µM | TGI (NCI-H226 lung): > 21.5 µM | TGI (M14 melanoma): > 100 µM | TGI (OVCAR-8 ovarian): > 100 µM | TGI (MDA-MB-435): > 100 µM | TGI (MDA-MB-231 breast): > 100 µM | TGI (HOP-62 NSCLC): > 100 µM | TGI (OVCAR-4 ovarian): > 100 µM | TGI (BT-549 breast): > 100 µM | TGI (ACHN renal): > 100 µM | TGI (PC-3 prostate): > 100 µM | TGI (NCI/ADR-RES ovarian): > 100 µM | TGI (M19-MEL melanoma): > 100 µM | TGI (SN12C renal): > 100 µM | TGI (SK-MEL-28 melanoma): > 100 µM | TGI (KM20L2 colon): > 100 µM | TGI (786-0 renal): > 100 µM | TGI (UACC-257 melanoma): > 100 µM | TGI (HT29 colon): > 100 µM | TGI (DMS 273 small cell lung): > 100 µM | TGI (SF-268 CNS): > 100 µM | TGI (A498 renal): > 100 µM | TGI (RXF-631 renal): > 100 µM | TGI (NCI-H23 lung): > 100 µM | TGI (SF-539 CNS): > 100 µM | TGI (NCI-H460 lung): > 85 µM | TGI (HS 578T breast): > 100 µM | TGI (UACC-62 melanoma): > 100 µM | TGI (KM12 colon): > 100 µM | TGI (MALME-3M melanoma): > 100 µM | TGI (MDA-N): > 100 µM | TGI (CCRF-CEM leukemia): > 86.1 µM | TGI (DLD-1 colon): > 100 µM | TGI (UO-31 renal): > 100 µM | TGI (HL-60(TB) leukemia): 57.6 µM | TGI (IGROV1 ovarian): > 100 µM | TGI (TK-10 renal): 100 µM | TGI (OVCAR-3 ovarian): > 100 µM | TGI (NCI-H522 lung): > 100 µM | TGI (HCC-2998 colon): > 100 µM | TGI (LOX IMVI melanoma): > 100 µM | TGI (SF-295 CNS): > 100 µM | TGI (SK-MEL-5 melanoma): 70.1 µM | TGI (SR leukemia): > 100 µM | TGI (OVCAR-5 ovarian): > 100 µM | TGI (HCT-15 colon): > 92.5 µM | TGI (MOLT-4 leukemia): 98.4 µM | TGI (DU-145 prostate): > 100 µM | TGI (U251 CNS): > 100 µM | TGI (COLO 205 colon): > 100 µM | TGI (RXF 393 renal): > 100 µM | TGI (EKVX NSCLC): > 100 µM | TGI (RPMI-8226 leukemia): > 100 µM | TGI (DMS 114 small cell lung): > 100 µM | TGI (HCT-116 colon): > 100 µM | TGI (K-562 leukemia): > 92.6 µM | TGI (SW-620 colon): > 100 µM | TGI (LXFL 529 NSCLC): > 100 µM

NS(=O)(=O)c1ccc(NC(=O)c2cccc3cc4ccccc4nc23)cc1
TGI (SK-MEL-2 melanoma): > 100 µM | TGI (T-47D breast): > 100 µM | TGI (XF 498 CNS): > 100 µM | TGI (HOP-92 NSCLC): > 100 µM | TGI (SNB-19 CNS): > 100 µM | TGI (CAKI-1 renal): > 100 µM | TGI (MCF7 breast): > 100 µM | TGI (SK-OV-3 ovarian): > 100 µM | TGI (SNB-75 CNS): > 100 µM | TGI (A549 NSCLC): > 100 µM | TGI (SNB-78 CNS): > 100 µM | TGI (NCI-H226 lung): 98.7 µM | TGI (M14 melanoma): > 100 µM | TGI (OVCAR-8 ovarian): > 100 µM | TGI (MDA-MB-435): > 100 µM | TGI (MDA-MB-231 breast): > 100 µM | TGI (HOP-62 NSCLC): > 100 µM | TGI (OVCAR-4 ovarian): > 100 µM | TGI (BT-549 breast): > 100 µM | TGI (ACHN renal): > 100 µM | TGI (PC-3 prostate): > 100 µM | TGI (NCI/ADR-RES ovarian): > 100 µM | TGI (M19-MEL melanoma): > 100 µM | TGI (SN12C renal): > 100 µM | TGI (SK-MEL-28 melanoma): > 100 µM | TGI (KM20L2 colon): > 100 µM | TGI (786-0 renal): > 100 µM | TGI (UACC-257 melanoma): > 100 µM | TGI (HT29 colon): > 100 µM | TGI (DMS 273 small cell lung): > 100 µM | TGI (SF-268 CNS): > 100 µM | TGI (A498 renal): > 100 µM | TGI (RXF-631 renal): > 100 µM | TGI (NCI-H23 lung): > 100 µM | TGI (SF-539 CNS): > 94.3 µM | TGI (NCI-H460 lung): > 100 µM | TGI (HS 578T breast): > 100 µM | TGI (UACC-62 melanoma): > 100 µM | TGI (KM12 colon): > 100 µM | TGI (MALME-3M melanoma): > 100 µM | TGI (MDA-N): > 100 µM | TGI (CCRF-CEM leukemia): > 100 µM | TGI (DLD-1 colon): > 100 µM | TGI (UO-31 renal): > 100 µM | TGI (HL-60(TB) leukemia): > 100 µM | TGI (IGROV1 ovarian): > 100 µM | TGI (TK-10 renal): > 91.2 µM | TGI (OVCAR-3 ovarian): > 100 µM | TGI (NCI-H522 lung): > 100 µM | TGI (HCC-2998 colon): > 100 µM | TGI (HOP-18 NSCLC): > 100 µM | TGI (LOX IMVI melanoma): > 97.3 µM | TGI (SF-295 CNS): > 100 µM | TGI (SK-MEL-5 melanoma): > 100 µM | TGI (SR leukemia): > 100 µM | TGI (OVCAR-5 ovarian): > 100 µM | TGI (HCT-15 colon): > 100 µM | TGI (MOLT-4 leukemia): 68.4 µM | TGI (DU-145 prostate): > 100 µM | TGI (U251 CNS): > 100 µM | TGI (COLO 205 colon): > 100 µM | TGI (RXF 393 renal): > 100 µM | TGI (EKVX NSCLC): > 100 µM | TGI (RPMI-8226 leukemia): > 100 µM | TGI (DMS 114 small cell lung): > 100 µM | TGI (HCT-116 colon): > 100 µM | TGI (K-562 leukemia): > 100 µM | TGI (SW-620 colon): > 100 µM | TGI (LXFL 529 NSCLC): > 100 µM
